How the values were obtained:
MET = biological target: T1, MET (Homo sapiens, UniProt P08581); assay: Test C: inhibition of the autophosphorylation of MET, ELISA technique (pppY1230, 1234, 1235), MKN45 cells; type: cell-based
T1 construct: endogenous in cells; host or cells: MKN45 cells
In short: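 MKN45 cells adhered 24 h, then treated 1 h with compound at 6 concentrations in duplicate, final range 10000 to 30 nM. Lysates assayed by phospho-MET (pY1230/1234/1235) sandwich ELISA with HRP chromogen read at 450 nm.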

MKN45 cells = assay: Test D: cellular proliferation by 14C-thymidine pulse, MKN45 cells; type: cell-based; conditions: cell line not stated (HCT116 or MKN45)
In short: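 MKN45 cells (7500/well, RPMI + 10% foetal calf serum) treated with 10 concentrations, 10000 to 0.3 nM in 3-fold steps, duplicate. 14C-thymidine (0.1 μCi/well) added at 72 h; incorporation counted after 24 h pulse, 96 h total treatment.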

[1] = Homo sapiens, MKN-45, cellular proliferation by 14C-thymidine pulse

T1 sequence (P08581 25-1390): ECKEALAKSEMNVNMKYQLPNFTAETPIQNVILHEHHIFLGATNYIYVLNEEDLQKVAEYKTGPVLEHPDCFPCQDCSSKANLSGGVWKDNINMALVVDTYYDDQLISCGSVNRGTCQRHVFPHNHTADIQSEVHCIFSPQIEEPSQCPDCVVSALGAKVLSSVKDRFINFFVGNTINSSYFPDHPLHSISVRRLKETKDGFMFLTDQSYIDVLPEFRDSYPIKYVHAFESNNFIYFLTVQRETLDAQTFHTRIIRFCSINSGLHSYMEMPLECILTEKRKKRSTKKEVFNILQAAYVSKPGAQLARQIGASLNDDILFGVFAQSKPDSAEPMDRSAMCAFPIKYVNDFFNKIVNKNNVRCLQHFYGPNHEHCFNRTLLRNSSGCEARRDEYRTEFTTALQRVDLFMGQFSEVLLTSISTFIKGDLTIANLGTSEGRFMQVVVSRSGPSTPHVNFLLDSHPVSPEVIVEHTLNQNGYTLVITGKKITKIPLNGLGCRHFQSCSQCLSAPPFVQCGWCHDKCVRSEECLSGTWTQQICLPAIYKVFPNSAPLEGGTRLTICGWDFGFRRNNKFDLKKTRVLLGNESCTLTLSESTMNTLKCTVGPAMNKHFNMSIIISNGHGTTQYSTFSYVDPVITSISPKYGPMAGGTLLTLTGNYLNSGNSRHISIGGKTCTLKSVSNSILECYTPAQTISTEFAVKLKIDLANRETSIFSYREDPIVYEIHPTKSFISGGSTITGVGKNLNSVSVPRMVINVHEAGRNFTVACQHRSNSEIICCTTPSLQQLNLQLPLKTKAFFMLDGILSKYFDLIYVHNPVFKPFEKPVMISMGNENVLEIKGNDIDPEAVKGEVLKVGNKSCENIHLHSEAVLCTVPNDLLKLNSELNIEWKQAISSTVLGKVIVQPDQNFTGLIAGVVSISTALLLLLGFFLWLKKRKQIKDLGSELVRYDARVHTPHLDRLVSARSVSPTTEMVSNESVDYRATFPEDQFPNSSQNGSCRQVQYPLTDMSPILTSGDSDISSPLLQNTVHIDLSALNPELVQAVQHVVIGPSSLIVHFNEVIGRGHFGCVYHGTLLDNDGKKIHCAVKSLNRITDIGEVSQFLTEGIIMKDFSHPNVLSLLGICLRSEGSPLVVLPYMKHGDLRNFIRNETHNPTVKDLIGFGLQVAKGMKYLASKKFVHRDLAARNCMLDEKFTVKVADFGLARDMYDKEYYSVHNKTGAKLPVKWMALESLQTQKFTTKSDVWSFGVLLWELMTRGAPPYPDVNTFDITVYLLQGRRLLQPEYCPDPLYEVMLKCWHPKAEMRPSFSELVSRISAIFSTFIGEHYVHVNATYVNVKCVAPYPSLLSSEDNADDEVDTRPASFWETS

IC50 (MET)	IC50 (MKN45 cells; [1])	melting point	IC50 (MKN45 cells; cellular proliferation by 14C-thymidine pulse)	Compound
500 to 10000 nM	500 to 10000 nM	215 to 220 °C	–	CC(Oc1ccc2nc(NC(=O)NCCN3CCOCC3)[nH]c2c1)c1c(Cl)cccc1Cl (stereo not shown) [Example 2, 1-{6-[1-(2,6-dichlorophenyl)ethoxy]-1H-benzimidazol-2-yl}-3-(2-morpholin-4-ylethyl)urea]
500 to 10000 nM	500 to 10000 nM	210 °C	–	CC(Oc1ccc2nc(NC(=O)NCCN3CCOCC3)[nH]c2c1)c1cc(F)ccc1Cl (stereo not shown) [Example 3, 1-{6-[1-(2-chloro-5-fluorophenyl)ethoxy]-1H-benzimidazol-2-yl}-3-(2-morpholin-4-ylethyl)urea]
500 to 10000 nM	500 to 10000 nM	210 to 216 °C	–	CC(Oc1cc2[nH]c(NC(=O)NCCN3CCOCC3)nc2cc1F)c1c(Cl)cccc1Cl (stereo not shown) [Example 5, 1-{6-[1-(2,6-dichlorophenyl)ethoxy]-5-fluoro-1H-benzimidazol-2-yl}-3-(2-morpholin-4-ylethyl)urea]
500 to 10000 nM	500 to 10000 nM	268 to 271 °C	–	O=C(NCCN1CCOCC1)Nc1nc2ccc(OCc3c(Cl)cccc3Cl)cc2s1 [Example 10, 1-{6-[(2,6-dichlorobenzyl)oxy]-1,3-benzothiazol-2-yl}-3-(2-morpholin-4-ylethyl)urea]
500 to 10000 nM	500 to 10000 nM	165 to 168 °C	–	CC(Oc1ccc2nc(NC(=O)NCCN3CCOCC3)sc2c1)c1c(Cl)cccc1Cl (stereo not shown) [Example 17, 1-{6-[1-(2,6-dichlorophenyl)ethoxy]-1,3-benzothiazol-2-yl}-3-(2-morpholin-4-ylethyl)urea]
500 to 10000 nM	500 to 10000 nM	206 °C	–	O=C(NCCN1CCOCC1)Nc1nc2cc(F)c(OCc3c(Cl)cccc3Cl)cc2s1 [Example 21, 1-{6-[(2,6-dichlorobenzyl)oxy]-5-fluoro-1,3-benzothiazol-2-yl}-3-(2-morpholin-4-ylethyl)urea]
< 500 nM	< 500 nM	110 °C	–	CC(Oc1ccc2nc(NC(=O)NCCN3CCOCC3)sc2c1)c1c(Cl)ccc(F)c1Cl (stereo not shown) [Example 24, 1-{6-[1-(2,6-dichloro-3-fluorophenyl)ethoxy]-1,3-benzothiazol-2-yl}-3-(2-morpholin-4-ylethyl)urea]
500 to 10000 nM	> 10000 nM	165 to 170 °C	–	Cc1ccc(F)c(C(C)Oc2ccc3nc(NC(=O)NCCN4CCOCC4)sc3c2)c1Cl (stereo not shown) [Example 28, 1-{6-[1-(2-chloro-6-fluoro-3-methylphenyl)ethoxy]-1,3-benzothiazol-2-yl}-3-(2-morpholin-4-ylethyl)urea]
< 500 nM	500 to 10000 nM	200 to 205 °C	–	CC(Oc1cc2sc(NC(=O)NCCN3CCOCC3)nc2cc1F)c1c(Cl)cccc1Cl (stereo not shown) [Example 29, 1-{6-[1-(2,6-dichlorophenyl)ethoxy]-5-fluoro-1,3-benzothiazol-2-yl}-3-(2-morpholin-4-ylethyl)urea]
< 500 nM	500 to 10000 nM	226 to 228 °C	–	CC(Oc1cc2sc(NC(=O)NCCN3CCOCC3)nc2cc1F)c1c(Cl)ccc(F)c1Cl (stereo not shown) [Example 31, 1-{6-[1-(2,6-dichloro-3-fluorophenyl)ethoxy]-5-fluoro-1,3-benzothiazol-2-yl}-3-(2-morpholin-4-ylethyl)urea]
500 to 10000 nM	> 10000 nM	133 to 139 °C	–	CC(Oc1ccc2nc(NC(=O)NCCN3CCC(Cc4ccccc4)CC3)sc2c1)c1c(Cl)ccc(F)c1Cl (stereo not shown) [Example 34, 1-[2-(4-benzylpiperidin-1-yl)ethyl]-3-{6-[1-(2,6-dichloro-3-fluorophenyl)ethoxy]-1,3-benzothiazol-2-yl}urea]
500 to 10000 nM	> 10000 nM	125 to 139 °C	–	CC(Oc1ccc2nc(NC(=O)NCCN3CCN(Cc4ccccc4)CC3)sc2c1)c1c(Cl)ccc(F)c1Cl (stereo not shown) [Example 35, 1-[2-(4-benzylpiperazin-1-yl)ethyl]-3-{6-[1-(2,6-dichloro-3-fluorophenyl)ethoxy]-1,3-benzothiazol-2-yl}urea]
500 to 10000 nM	> 10000 nM	87 °C	–	CC(Oc1ccc2nc(NC(=O)NCCN3CCN(C(=O)OC(C)(C)C)CC3)sc2c1)c1c(Cl)ccc(F)c1Cl (stereo not shown) [Example 36, 1,1-dimethylethyl 4-{2-[({6-[1-(2,6-dichloro-3-fluorophenyl)ethoxy]-1,3-benzothiazol-2-yl}carbamoyl)amino]ethyl}piperazine-1-carboxylate]
500 to 10000 nM	> 10000 nM	–	–	CC(Oc1ccc2nc(NC(=O)NCCCN3CCN(Cc4c(F)cccc4Cl)CC3)sc2c1)c1c(Cl)ccc(F)c1Cl (stereo not shown) [Example 46, 1-{3-[4-(2-chloro-6-fluorobenzyl)piperazin-1-yl]propyl}-3-{6-[1-(2,6-dichloro-3-fluorophenyl)ethoxy]-1,3-benzothiazol-2-yl}urea]
500 to 10000 nM	500 to 10000 nM	–	–	CC(Oc1ccc2nc(NC(=O)NCCCN3C(C)CCCC3C)sc2c1)c1c(Cl)ccc(F)c1Cl (stereo not shown) [Example 47, 1-{6-[1-(2,6-dichloro-3-fluorophenyl)ethoxy]-1,3-benzothiazol-2-yl}-3-[3-(2,6-dimethylpiperidin-1-yl)propyl]urea]
< 500 nM	> 10000 nM	–	–	CC(Oc1ccc2nc(NC(=O)NCCCN3CCCCCC3)sc2c1)c1c(Cl)ccc(F)c1Cl (stereo not shown) [Example 48, 1-(3-azepan-1-ylpropyl)-3-{6-[1-(2,6-dichloro-3-fluorophenyl)ethoxy]-1,3-benzothiazol-2-yl}urea]
< 500 nM	500 to 10000 nM	–	–	CC(Oc1ccc2nc(NC(=O)NCCCN3CCN(Cc4ccccc4)CC3)sc2c1)c1c(Cl)ccc(F)c1Cl (stereo not shown) [Example 49, 1-[3-(4-benzylpiperazin-1-yl)propyl]-3-{6-[1-(2,6-dichloro-3-fluorophenyl)ethoxy]-1,3-benzothiazol-2-yl}urea]
< 500 nM	500 to 10000 nM	–	–	CC(Oc1ccc2nc(NC(=O)NCCN3CCCCC3)sc2c1)c1c(Cl)ccc(F)c1Cl (stereo not shown) [Example 50, 1-{6-[1-(2,6-dichloro-3-fluorophenyl)ethoxy]-1,3-benzothiazol-2-yl}-3-(2-piperidin-1-ylethyl)urea]
< 500 nM	500 to 10000 nM	–	–	CC(Oc1ccc2nc(NC(=O)NCCN3CCCC3)sc2c1)c1c(Cl)ccc(F)c1Cl (stereo not shown) [Example 51, 1-{6-[1-(2,6-dichloro-3-fluorophenyl)ethoxy]-1,3-benzothiazol-2-yl}-3-(2-pyrrolidin-1-ylethyl)urea]
< 500 nM	< 500 nM	–	–	CC(Oc1ccc2nc(NC(=O)NCCC3CCCN3C)sc2c1)c1c(Cl)ccc(F)c1Cl (stereo not shown) [Example 53, 1-{6-[1-(2,6-dichloro-3-fluorophenyl)ethoxy]-1,3-benzothiazol-2-yl}-3-[2-(1-methylpyrrolidin-2-yl)ethyl]urea]
< 500 nM	500 to 10000 nM	–	–	CC(Oc1ccc2nc(NC(=O)NCCN3CCCCCC3)sc2c1)c1c(Cl)ccc(F)c1Cl (stereo not shown) [Example 54, 1-(2-azepan-1-ylethyl)-3-{6-[1-(2,6-dichloro-3-fluorophenyl)ethoxy]-1,3-benzothiazol-2-yl}urea]
< 500 nM	< 500 nM	–	–	CC(Oc1ccc2nc(NC(=O)NCCN3CCN(C)CC3)sc2c1)c1c(Cl)ccc(F)c1Cl (stereo not shown) [Example 55, 1-{6-[1-(2,6-dichloro-3-fluorophenyl)ethoxy]-1,3-benzothiazol-2-yl}-3-[2-(4-methylpiperazin-1-yl)ethyl]urea]
< 500 nM	< 500 nM	–	–	CC(Oc1ccc2nc(NC(=O)NCCN3C(C)CCCC3C)sc2c1)c1c(Cl)ccc(F)c1Cl (stereo not shown) [Example 56, 1-{6-[1-(2,6-dichloro-3-fluorophenyl)ethoxy]-1,3-benzothiazol-2-yl}-3-[2-(2,6-dimethylpiperidin-1-yl)ethyl]urea]
500 to 10000 nM	> 10000 nM	–	–	CC(Oc1ccc2nc(NC(=O)NCc3ccncc3)sc2c1)c1c(Cl)ccc(F)c1Cl (stereo not shown) [Example 57, 1-{6-[1-(2,6-dichloro-3-fluorophenyl)ethoxy]-1,3-benzothiazol-2-yl}-3-(pyridin-4-ylmethyl)urea]
500 to 10000 nM	> 10000 nM	–	–	CC(Oc1ccc2nc(NC(=O)NCc3ccccn3)sc2c1)c1c(Cl)ccc(F)c1Cl (stereo not shown) [Example 58, 1-{6-[1-(2,6-dichloro-3-fluorophenyl)ethoxy]-1,3-benzothiazol-2-yl}-3-(pyridin-2-ylmethyl)urea]
500 to 10000 nM	500 to 10000 nM	–	–	CC(Oc1ccc2nc(NC(=O)NCc3cccnc3)sc2c1)c1c(Cl)ccc(F)c1Cl (stereo not shown) [Example 59, 1-{6-[1-(2,6-dichloro-3-fluorophenyl)ethoxy]-1,3-benzothiazol-2-yl}-3-(pyridin-3-ylmethyl)urea]
< 500 nM	500 to 10000 nM	–	–	CC(Oc1cc2sc(NC(=O)NCCN3CCNC(=O)C3)nc2cc1F)c1c(Cl)ccc(F)c1Cl (stereo not shown) [Example 130, 1-{6-[1-(2,6-dichloro-3-fluorophenyl)ethoxy]-5-fluoro-1,3-benzothiazol-2-yl}-3-[2-(3-oxopiperazin-1-yl)ethyl]urea]
500 to 10000 nM	–	–	500 to 10000 nM	{6-[1-(2,6-dichloro-3-fluorophenyl)ethoxy]-5-fluoro-1,3-benzothiazol-2-yl}2-(pyrrolidin-1-yl)ethyl carbamate [Example 73]

Compound	IC50 (MET)	IC50 (MKN45 cells; [1])	melting point	IC50 (MKN45 cells; cellular proliferation by 14C-thymidine pulse)
CCN(CC)CCCOC(=O)Nc1nc2cc(F)c(OC(C)c3c(Cl)ccc(F)c3Cl)cc2s1 (stereo not shown) [Example 70]	500 to 10000 nM	500 to 10000 nM	–	–
CC(Oc1ccc2nc(NC(=O)OCCN3CCOCC3)sc2c1)c1c(Cl)ccc(F)c1Cl (stereo not shown) [Example 74]	< 500 nM	500 to 10000 nM	–	–

From patent publication US8188078B2 (Sanofi-Aventis, priority 2007, dated 2012)
